Read-outs that look alike come from different tables or passages of the source.
Columns and labels:
human MSCs [1] = test: Gene expression analysis by qPCR in human MSCs; type: cell-based; conditions: for expression levels of FGF-21, CXCR4 and Hsp70 / expression of Oct 3/4 / expression of SIRT-1: 250 μM VPA, 500 nM curcumin, FIG. 13
Experimental: Beta actin was measured as a house-keeping gene. […] Gene expression was quantified by determining the amount of gene-specific DNA/total cDNA. Data is mean+/−SD of 4 replicates.
Native human umbilical cord-derived MSCs (Vitro Biopharma Cat. No. SC00A1) were expanded from cryopreservation in T-25 TC-coated flasks (BD Falcon, Cat. No. 353108) in MSC-Gro™ low serum, complete medium (Vitro Biopharma Cat. No. SCO0B1). Cells were sub-cultured and counted on a Beckerman-Coulter Z2 particle counter (range 10 μm-30 μm). Cells were plated at 10,000/cm^2 a TC-coated Greiner Bio-One T75 flask and maintained in MSC-Gro™ serum free, complete medium (Vitro Biopharma Cat. No. SCO0B3) in a reduced O2 environment (1% O2, 5% CO2, 94% N2) at 37° C. in a humidified chamber. The MSCs were treated continuously for up to 2 weeks. Cultures were fed every 3 days. Cells were harvested using Accutase (Innovative Cell Technologies Inc., Cat No AT-104) and centrifuged (450×g) for 7 minutes. Cell supernatant was aspirated off and cells were resuspended in 1 mL PBS and counted on a Beckerman-Coulter Z2 particle counter (range 10 μm-30 μm). Total RNA was extracted using RNeasy mini kit (Qiagen Cat. No. 74104). RNA was quantified using an absorbance measurement at 260 nm. RNA was converted to cDNA using Quantitect reverse transcription kit (Qiagen Cat. No. 205310) in a thermocycler. RNA was incubated in the gDNA elimination reaction for 2 minutes at 42° C. then incubated in the reverse-transcription master mix for 15 minutes at 42° C. Immediately after, it was incubated at 95° C. for 3 minutes for inactivation. cDNA was sent to an outside lab (CU-Anschutz Metabolic Laboratory) for q-PCR to detect relative or absolute gene expression levels. cDNA was diluted 1:5 and an iTaq Universal Supermix fluorescent probe (BioRad Cat. No. 172-5120) used to detect the threshold cycle (Ct) during PCR Dilution factors and cDNA concentrations were calculated into recorded values then normalized to untreated hMSCs (Vitro Biopharma Cat. No. SC00A1).
Gene expression was quantified by determining the amount of gene-specific DNA/total cDNA. Data is mean+/−SD of 4 replicates.
Native human umbilical cord-derived MSCs (Vitro Biopharma Cat. No. SC00A1) were expanded from cryopreservation in T-25 TC-coated flasks (BD Falcon, Cat. No. 353108) in MSC-Gro™ low serum, complete medium (Vitro Biopharma Cat. No. SCO0B1). Cells were sub-cultured and counted on a Beckerman-Coulter Z2 particle counter (range 10 μm-30 μm). Cells were plated at 10,000/cm2 a TC-coated Greiner Bio-One T75 flask and maintained in MSC-Gro™ serum free, complete medium (Vitro Biopharma Cat. No. SCO0B3) in a reduced O2 environment (1% O2, 5% CO2, 94% N2) at 37° C. in a humidified chamber. The MSCs were treated continuously for up to 2 weeks. Cultures were fed every 3 days. Cells were harvested using Accutase (Innovative Cell Technologies Inc., Cat No AT-104) and centrifuged (450×g) for 7 minutes. Cell supernatant was aspirated off and cells were resuspended in 1 mL PBS and counted on a Beckerman-Coulter Z2 particle counter (range 10 μm-30 μm).
Total RNA was extracted using RNeasy Mini Kit (Qiagen Cat. No. 74104). RNA was quantified using an absorbance measurement at 260 nm. RNA was converted to cDNA using Quantitect reverse transcription Kit (Qiagen Cat. No. 205310) in a thermocycler. RNA was incubated in the DNA elimination reaction for 2 minutes at 42° C. then incubated in the reverse-transcription master mix for 15 minutes at 42° C. Immediately after, it was incubated at 95° C. for 3 minutes for inactivation. cDNA was sent to an outside lab (CU-Anschutz Metabolic Laboratory) for q-PCR to detect relative or absolute gene expression levels. cDNA was diluted 1:5 and an iTaq Universal Supermix fluorescent probe (BioRad Cat. No. 172-5120) was used to detect the threshold cycle (Ct) during PCR.

human MSCs [2] = test: cells; conditions: for effect on MSC migration induced by curcumin and quercetin / effect on MSC migration induced by curcumin and resveratrol: 20 μM AMD3100 or 15 μM GM6001; for effect on MSC migration induced by Li-VPA: both AMD 3100 and GM6001 present; for EC50: Homo sapiens
Experimental: (§1) FIG. 1 is a microphotograph depicting cell migration using fluorescent readout and cell tracker green as a fluorescent marker of human UC-MSCs. […] The EC50 was determined as a measure of effectiveness of activating agents. […] An initial analysis of the cell free zone using Image J software was used to screen concentrations of activating agents for dose-response determination in further experiments.
(§2) The cell migration assays described above were set up as follows: One million cells/cell line were resuspended in 10 mL MSC-Gro™ serum free, quiescent medium (Vitro Biopharma Cat. No. SCO0B17) containing 5 μg/mL mitomycin C (Sigma, Cat. No. M4287) to inhibit proliferation and incubated for 2 hours at room temperature with end-to-end agitation at 7 RPM.
In some experiments, curcumin was used at 1 μM to block proliferation. Cells were centrifuged (450×g) for 7 minutes, washed with PBS and then resuspended in 1 mL MSC-Gro™ low serum, complete medium (Vitro Biopharma Cat. No. SCO0B1) and plated at 25,000 cells/well in black 96 well, TC-coated cell culture plates (ThermoScientific, Cat. No. 165305) containing cell seed-stoppers (Platypus, Cat. No. CMAUFL4) to form a cell free zone at the center of the well and incubated in 5% CO2, 1% O2, 94% N2 at 37° C. in a humidified chamber for 24 hrs. Plates used for culture of NSCs were first treated with 10 μg/mL fibronectin (Sigma, Cat. No. F0556) for 2 hours at 37° C. Following washout with PBS (3×), cell seed stoppers were inserted, NSCs were plated at 25,000/well and incubated in 5% CO2, 1% O2, 94% N2 at 37° C. in a humidified chamber for 48 hrs.
For studies of the effects of CXCR4 and MMP-9 inhibition following 24 hours of cell culture, appropriate wells were dosed with 15 μM GM6001 and 20 μM AMD3100 for 6 hours. Cells were washed once with PBS then incubated in serum free, MSC-Gro™ (Vitro Biopharma Cat. No. SCO0B17) containing 5 μM Cell Tracker Green CIVIFDA (Molecular Probes, Cat. No. C7025) at 37° C. for 30 minutes. The wells were then washed with serum free, MSC-Gro™ (Vitro Biopharma Cat. No. SCO0B17) and incubated for 30 minutes at 37° C. Cells were washed once with PBS and this was replaced with MSC-Gro™ serum free, quiescent medium (Vitro Biopharma Cat. No. SCO0B17) containing different concentrations of activating agents. […] A TopSeal (PerkinElmer, Cat. No. 6050195) covered the plate for live-cell imaging in a BioTek Cytation3 imaging reader. Kinetic data was acquired every 2 hrs for 24 hrs using a GFP filter and bright field data acquisition. The gas phase throughout the acquisition of kinetic data was 5% O2, 5% CO2 with the balance nitrogen maintained by a BioTek CO2/O2 gas controller. Images were saved as TIFF files to calculate percent closure using imaging data.

[3] = test system: CAFs, primary fibroblasts and MSCs; test: Presto Blue proliferation assay, CAFs, primary fibroblasts and MSCs (FGF-2 validation); type: cell-based, human; conditions: 5 day exposure
Experimental: (§3) Example 5: Effects of lithium and VPA on stem cell proliferation: The effects of lithium and VPA on stem cell proliferation were then investigated using an assay based on Presto Blue, a fluorescent marker of cellular reduction. FIG. 8 is a line graph representation illustrating proliferation of different cell lines induced by increasing concentrations of FGF-b (FGF-2) after a 5 day exposure. Relative fluorescent units were measured using a FITC filter on a Modulus microplate reader and plotted as a function of FGF-2. The data was modeled by sigmoidal curve fitting to calculate EC50 values. […] Proliferation of these mesenchymal cells was stimulated by recombinant human FGF-2 with EC50 values in the range of 3 to 6 ng/ml with maximal proliferative responses at about 10 ng/ml.

human NSCs = test: Cell migration assay, human NSCs; type: cell-based; conditions: read-out: EC50 of VPA for NSC migration in 200 μM lithium, increasing VPA in 200 μM lithium, FIG. 6
Experimental: as §1, §2
In some experiments, curcumin was used at 1 μM to block proliferation. […]
For studies of the effects of CXCR4 and MMP-9 inhibition following 24 hours of cell culture, appropriate wells were dosed with 15 μM GM6001 and 20 μM AMD3100 for 6 hours. […] A TopSeal (PerkinElmer, Cat. No. 6050195) covered the plate for live-cell imaging in a BioTek Cytation3 imaging reader. […]

MSCs = test: Presto Blue proliferation assay, MSCs; type: cell-based; conditions: Homo sapiens
Experimental: as §3
The proliferative effects of lithium and VPA were compared, either alone or in combination to MSC proliferation. The results are shown in FIG. 9, which is a line graph representation illustrating proliferation of MSCs induced by lithium, VPA and VPA in 200 μM lithium after a 5 day exposure. Relative fluorescent units were measured using a FITC filter on a Modulus microplate reader and plotted as a function of FGF-2. The data was modeled by sigmoidal curve fitting to calculate EC50 values.

NSCs = test: Presto Blue proliferation assay, NSCs; type: cell-based; conditions: Homo sapiens, 120 h, read-out: EC50 of VPA for NSC proliferation in 200 μM lithium, 5 day exposure, FIG. 10
Experimental: as §3
The proliferative responses of MSCs and NSCs were compared to Li-VPA. The results are shown in FIG. 10, which is a line graph representation illustrating proliferation of MSCs and NSCs as a function of increasing VPA in 200 μM lithium after a 5 day exposure. Relative fluorescent units were measured using a FITC filter on a Modulus microplate reader and plotted as a function of FGF-2. The data was modeled by sigmoidal curve fitting to calculate EC50 values. […] This may reflect intrinsic proliferative capacity. […]

human fibroblast = conditions: read-out: EC50 of human fibroblast migration induced by Substance P (prior study); suspension culture system; Parenti et al. 1996; cited from earlier work
[4] = Example 6, 31.25 μM VPA, 200 μM lithium, FIG. 11

CCCC(=O)[O-].[Na+] [Na butyrate]
expression levels of FGF-21, CXCR4 and Hsp70 (human MSCs [1]; Example 8): lower levels | expression of Oct 3/4 (human MSCs [1]; Example 8): less expression activation | expression of SIRT-1 (human MSCs [1]; Example 8): significantly less effective

CC(/C=C/C(=O)NO)=C\[C@@H](C)C(=O)c1ccc(N(C)C)cc1 [TSA]
expression levels of FGF-21, CXCR4 and Hsp70 (human MSCs [1]; Example 8): lower levels | expression of Oct 3/4 (human MSCs [1]; Example 8): less expression activation | expression of SIRT-1 (human MSCs [1]; Example 8): significantly less effective

c1cc(CN2CCCNCCNCCCNCC2)ccc1CN1CCCNCCNCCCNCC1 [AMD3100]
effect on VPA-induced MSC migration (human MSCs [2]; 20 μM AMD3100, CXCR4 inhibitor, FIG. 7): blocked | effect on MSC migration induced by curcumin and quercetin (human MSCs [2]; FIG. 14): blocked MSC migration | effect on MSC migration induced by curcumin and resveratrol (human MSCs [2]; FIG. 15): blocked MSC migration | effect on MSC migration induced by Li-VPA (human MSCs [2]; FIG. 7): blocked

COc1cc(/C=C/C(=O)CC(=O)/C=C/c2ccc(O)c(OC)c2)ccc1O [curcumin]
EC50 (human MSCs [2]; 36 h, read-out: apparent EC50 of curcumin-induced migration, MSCs, percent closure after 36-hour run): 250 nM | concentration at which curcumin induced migration (human MSCs [2]; human MSCs, 36-hour run): less than 1 μM | estimated LD50 (apparent toxicity, reduced cell number) (human MSCs [2]; human, 36 h): 3 µM | expression of Oct 3/4, SIRT-1, FGF21, CXCR4 and Hsp70 as compared to VPA (human MSCs [1]; Example 8, 500 nM curcumin vs 250 μM VPA): equivalent or increased expression | expression of Oct 3/4 (human MSCs [1]; Example 8): about 20 fold | expression of SIRT-1 (human MSCs [1]; Example 8): ~300 fold

Oc1ccc(C=Cc2cc(O)cc(O)c2)cc1 [resveratrol]
EC50 (human MSCs [2]; read-out: EC50 of resveratrol for MSC migration in 500 nM curcumin, 500 nM curcumin, FIG. 15): 253 nM

O=c1c(O)c(-c2ccc(O)c(O)c2)oc2cc(O)cc(O)c12 [quercetin]
EC50 (human MSCs [2]; read-out: EC50 of quercetin for MSC migration in 500 nM curcumin, 500 nM curcumin, FIG. 14): 317 nM

FGF-2: recombinant human FGF-2, member of the family of fibroblast growth factors
concentration of maximal proliferative responses [3]: about 10 ng/ml

CCCC(CCC)C(=O)O [VPA, valproic acid]
EC50 (human MSCs [2]; read-out: EC50 of MSC migration, agent alone, percent closure, sigmoidal curve fit, FIG. 5): 38400 nM | EC50 (human MSCs [2]; read-out: EC50 of VPA for MSC migration in 200 μM lithium, increasing VPA in 200 μM lithium): 33000 nM | concentration of maximal migration / maximum closure (human MSCs [2]; agent alone, FIG. 5): 100 µM | EC50 (human NSCs): 35.2 µM | EC50 (MSCs; 200 μM lithium, MSCs and NSCs, proliferation and migration, read-out: VPA concentration 50% effective in inducing cell proliferation and migration (mean)): 37 µM | EC50 (MSCs; 200 μM lithium, MSCs and NSCs, proliferation and migration, read-out: VPA concentration 50% effective in inducing cell proliferation and migration (range)): 35 to 39 µM | EC50 (MSCs; 120 h, 5 day exposure, FIG. 9, read-out: EC50 of MSC proliferation, agent alone): 47.7 µM | EC50 (MSCs; 120 h, read-out: EC50 of VPA for MSC proliferation in 200 μM lithium, 5 day exposure, 200 μM lithium): 63.3 µM | EC50 (NSCs): 36.8 µM | expression of Oct 3/4 compared to untreated human MSCs (human MSCs [1]; [4]): about 20 fold | expression of SIRT-1 compared to untreated MSC (human MSCs [1]; [4]): ~300 fold | expression of Oct 3/4 (human MSCs [1]; Example 8): about 20 fold | expression of SIRT-1 (human MSCs [1]; Example 8): ~300 fold

CSCC[C@H](NC(=O)[C@H](CC(C)C)NC(=O)CNC(=O)[C@H](Cc1ccccc1)NC(=O)[C@H](Cc1ccccc1)NC(=O)[C@H](CCC(N)=O)NC(=O)[C@H](CCC(N)=O)NC(=O)[C@@H]1CCCN1C(=O)[C@H](CCCCN)NC(=O)[C@@H]1CCCN1C(=O)[C@@H](N)CCCNC(=N)N)C(N)=O [Substance P]
MSC migration into cell-free center of the well (human MSCs [2]; 3.7 nM Substance P, 24 hours): induced MSC migration into the cell-free center of the well | MSC migration (percent closure) dose-response (human MSCs [2]; Substance P from 0 to 18.5 nM, 24-hour live cell analysis): migration increased in a dose-dependent manner | EC50 (human fibroblast): 2.2 nM

CCCCC(=O)O [valeric acid]
expression levels of FGF-21, CXCR4 and Hsp70 (human MSCs [1]; Example 8): lower levels | expression of Oct 3/4 (human MSCs [1]; Example 8): less expression activation | expression of SIRT-1 (human MSCs [1]; Example 8): significantly less effective

CNC(=O)[C@H](Cc1c[nH]c2ccccc12)NC(=O)[C@@H](CC(=O)NO)CC(C)C [GM6001]
effect on lithium-induced MSC migration (human MSCs [2]; 15 μM GM6001, MMP-9 inhibitor, FIG. 7): blocked | effect on MSC migration induced by curcumin and quercetin (human MSCs [2]; FIG. 14): blocked MSC migration | effect on MSC migration induced by curcumin and resveratrol (human MSCs [2]; FIG. 15): blocked MSC migration | effect on MSC migration induced by Li-VPA (human MSCs [2]; FIG. 7): blocked

Source: patent publication US20220389377A1, “TREATMENT OF MEDICAL CONDITIONS BY STEM CELL TRANSPLANTS AND STEM CELL ACTIVATION” (Vitro Biopharma, Inc., priority 2021, published 2022)
